According to patent US8088763B2 (priority 2004, dated 2012):

Columns and labels:
NA-uptake = NA-uptake (Rattus norvegicus, UniProt Q63380); assay: biochemical; details: for inhibition at 10 µM: read-out: NA-uptake [10 μM], % inhibition
5HT-uptake = biological target: T1, 5HT-uptake (Rattus norvegicus, UniProt P31652); assay: biochemical; details: for inhibition at 10 µM: read-out: 5HT-uptake [10 μM], % inhibition
T1 construct: synaptosomes were freshly isolated from areas of rats' brains
T1 sequence (P31652 whole entry): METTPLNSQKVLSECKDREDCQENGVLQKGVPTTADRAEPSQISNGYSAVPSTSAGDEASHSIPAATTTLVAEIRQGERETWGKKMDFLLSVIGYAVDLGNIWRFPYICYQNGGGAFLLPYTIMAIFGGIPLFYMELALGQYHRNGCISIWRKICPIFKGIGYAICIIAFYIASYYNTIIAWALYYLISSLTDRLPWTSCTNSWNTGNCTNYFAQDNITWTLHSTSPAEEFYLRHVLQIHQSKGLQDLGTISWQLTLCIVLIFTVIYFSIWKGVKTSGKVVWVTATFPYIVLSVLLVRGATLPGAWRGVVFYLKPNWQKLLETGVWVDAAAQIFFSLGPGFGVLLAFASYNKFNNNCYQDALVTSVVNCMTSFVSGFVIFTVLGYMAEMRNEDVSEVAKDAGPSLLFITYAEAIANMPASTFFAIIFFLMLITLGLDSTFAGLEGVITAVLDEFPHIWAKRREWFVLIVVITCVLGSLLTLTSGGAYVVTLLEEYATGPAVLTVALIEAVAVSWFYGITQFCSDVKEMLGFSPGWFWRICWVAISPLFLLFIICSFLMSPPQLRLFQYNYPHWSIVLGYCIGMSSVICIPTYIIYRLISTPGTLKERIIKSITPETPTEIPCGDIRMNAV

Chain of NA-uptake (Q63380 1-617): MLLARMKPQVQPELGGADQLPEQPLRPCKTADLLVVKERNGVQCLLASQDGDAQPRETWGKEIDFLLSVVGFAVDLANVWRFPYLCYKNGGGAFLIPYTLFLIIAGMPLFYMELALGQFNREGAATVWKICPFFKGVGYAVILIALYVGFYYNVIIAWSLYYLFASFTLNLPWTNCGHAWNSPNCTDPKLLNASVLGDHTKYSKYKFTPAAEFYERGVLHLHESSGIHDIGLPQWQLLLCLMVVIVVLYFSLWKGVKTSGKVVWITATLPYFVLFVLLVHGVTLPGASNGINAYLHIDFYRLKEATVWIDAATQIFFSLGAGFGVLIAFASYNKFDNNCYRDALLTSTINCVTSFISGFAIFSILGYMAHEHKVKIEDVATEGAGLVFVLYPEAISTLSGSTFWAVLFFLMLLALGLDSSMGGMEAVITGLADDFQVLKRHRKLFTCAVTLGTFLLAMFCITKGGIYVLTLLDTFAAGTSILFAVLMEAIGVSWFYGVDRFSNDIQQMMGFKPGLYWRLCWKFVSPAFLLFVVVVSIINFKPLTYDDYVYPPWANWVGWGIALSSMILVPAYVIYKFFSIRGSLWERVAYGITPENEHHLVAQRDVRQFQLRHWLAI

SMILES	inhibition at 10 µM (NA-uptake) [%]	inhibition at 10 µM (5HT-uptake) [%]	NA-uptake [10 μM], % inhibition (NA-uptake) [%]	5HT-uptake [10 μM], % inhibition (5HT-uptake) [%]
Cc1ccc(CC2(N(C)C)CCC(NC(=O)CCC(=O)N3CCN(c4cccc(C)c4C)CC3)CC2)cc1 (centres unmarked) [Example 58, N-[4-dimethylamino-4-(4-methyl-benzyl)-cyclohexyl]-4-[4-(2,3-dimethyl-phenyl)-piperazin-1-yl]-4-oxo-butyramide]	79	93		
CC1CCN(C(=O)CCC(=O)NC2CCC(Cc3ccc(Cl)cc3)(N(C)C)CC2)CC1 (centres unmarked) [Example 60, N-[4-(4-chloro-benzyl)-4-dimethylamino-cyclohexyl]-4-(4-methyl-piperidin-1-yl)-4-oxobutyramide]	71	93		
Cc1ccc(CC2(N(C)C)CCC(NC(=O)CCC(=O)NC(C)C(=O)OC(C)(C)C)CC2)cc1 (centres unmarked) [Example 61, 2-{3-[4-dimethylamino-4-(4-methyl-benzyl)-cyclohexylcarbamoyl]-propionylamino}-propanoic acid-tert-butylester]	93	92		
CN(C)C1(Cc2ccccc2)CCC(NC(=O)CCCC(=O)N2CCN(C3CCCCCC3)CC2)CC1 (centres unmarked) [Example 62, 5-(4-cycloheptyl-piperazin-1-yl)-5-oxo-valeric acid (4-benzyl-4-dimethylamino-cyclohexyl)-amide]	86	100		
CN(C)C1(Cc2ccc(Cl)cc2)CCC(NC(=O)CCC(=O)N2CCC3(CC2)OCCO3)CC1 (centres unmarked) [Example 65, N-[4-(4-chloro-benzyl)-4-dimethylamino-cyclohexyl]-4-(1,4-dioxa-8-aza-spiro[4.5]dec-8-yl)-4-oxo-butyramide]	84	92		
Cc1cccc(CC2(N(C)C)CCC(NC(=O)CCC(=O)N3CCC(C(=O)c4ccccc4)CC3)CC2)c1 (centres unmarked) [Example 67, 4-(4-benzoyl-piperidin-1-yl)-N-[4-dimethylamino-4-(3-methyl-benzyl)-cyclohexyl]-4-oxo-butyramide]	96	98		
COc1ccc(CNC(=O)CCC(=O)NC2CCC(Cc3ccc(Cl)cc3)(N(C)C)CC2)c(OC)c1 (centres unmarked) [Example 68, N-[4-(4-chloro-benzyl)-4-dimethylamino-cyclohexyl]-N′-(2,4-dimethoxy-benzyl)-succinamide]	85	98		
CCN(Cc1ccncc1)C(=O)CCC(=O)NC1CCC(Cc2ccc(Cl)cc2)(N(C)C)CC1 (centres unmarked) [Example 70, N-[4-(4-chloro-benzyl)-4-dimethylamino-cyclohexyl]-N′-ethyl-N′-pyridin-4-ylmethyl-succinamide]	96	93		
COc1ccc(CCN(C)C(=O)CCC(=O)NC2CCC(Cc3cccc(C)c3)(N(C)C)CC2)cc1OC (centres unmarked) [Example 71, N-[2-(3,4-dimethoxy-phenyl)-ethyl]-N′-[4-dimethylamino-4-(3-methyl-benzyl)-cyclohexyl]-N-methyl-succinamide]	94	92		
CN(Cc1cccnc1)C(=O)CCC(=O)NC1CCC(Cc2ccc(Cl)cc2)(N(C)C)CC1 (centres unmarked) [Example 72, N-[4-(4-chloro-benzyl)-4-dimethylamino-cyclohexyl]-N′-methyl-N′-pyridin-3-ylmethyl-succinamide]	70	95		
CN(C)C1(Cc2cccc(Cl)c2)CCC(NC(=O)CCC(=O)NCc2ccccn2)CC1 (centres unmarked) [Example 73, N-[4-(3-chloro-benzyl)-4-dimethylamino-cyclohexyl]-N′-pyridin-2-ylmethyl-succinamide]	87	93		
COc1ccc(NC(=O)CCC(=O)NC2CCC(Cc3cccc(C)c3)(N(C)C)CC2)cc1 (centres unmarked) [Example 75, N-[4-dimethylamino-4-(3-methyl-benzyl)-cyclohexyl]-N′-(4-methoxy-phenyl)-succinamide]	99	97		
COc1ccc(N2CCN(C(=O)CCC(=O)NC3CCC(Cc4ccc(C)cc4)(N(C)C)CC3)CC2)cc1 (centres unmarked) [Example 79, N-[4-dimethylamino-4-(4-methyl-benzyl)-cyclohexyl]-4-[4-(4-methoxy-phenyl)-piperazin-1-yl]-4-oxo-butyramide]	95	96		
CC(CCc1ccccc1)NC(=O)CCC(=O)NC1CCC(Cc2ccc(Cl)cc2)(N(C)C)CC1 (centres unmarked) [Example 83, N-[4-(4-chloro-benzyl)-4-dimethylamino-cyclohexyl]-N′-(1-methyl-3-phenyl-propyl)-succinamide]	105	93		
CCOC(=O)N1CCN(C(=O)CCC(=O)NC2CCC(Cc3cccc(Cl)c3)(N(C)C)CC2)CC1 (centres unmarked) [Example 84, 4-{3-[4-(3-chloro-benzyl)-4-dimethylamino-cyclohexylcarbamoyl]-propionyl}-piperazin-1-carboxylic acid ethylester]	96	95		
COc1ccc(CNC(=O)CCC(=O)NC2CCC(Cc3cccc(C)c3)(N(C)C)CC2)cc1 (centres unmarked) [Example 85, N-[4-dimethylamino-4-(3-methyl-benzyl)-cyclohexyl]-N′-(4-methoxy-benzyl)-succinamide]	100	94		

SMILES	inhibition at 10 µM (NA-uptake) [%]	inhibition at 10 µM (5HT-uptake) [%]	NA-uptake [10 μM], % inhibition (NA-uptake) [%]	5HT-uptake [10 μM], % inhibition (5HT-uptake) [%]
CC1CN(C(=O)CCC(=O)NC2CCC(Cc3ccc(Cl)cc3)(N(C)C)CC2)CC(C)O1 (centres unmarked) [Example 86, N-[4-(4-chloro-benzyl)-4-dimethylamino-cyclohexyl]-4-(2,6-dimethyl-morpholin-4-yl)-4-oxo-butyramide]	76	92		
Cc1ccc(CC2(N(C)C)CCC(NC(=O)CCC(=O)N3CC=C(c4ccccc4)CC3)CC2)cc1 (centres unmarked) [Example 87, N-[4-dimethylamino-4-(4-methyl-benzyl)-cyclohexyl]-4-oxo-4-(4-phenyl-3,6-dihydro-2H-pyridin-1-yl)-butyramide]	94	96		
CN(C)C1(Cc2ccc(Cl)cc2)CCC(NC(=O)CCC(=O)NCCc2cccc(F)c2)CC1 (centres unmarked) [Example 88, N-[4-(4-chloro-benzyl)-4-dimethylamino-cyclohexyl]-N′-[2-(3-fluoro-phenyl)-ethyl]-succinamide]	102	97		
C=CCOc1ccc(CN2CCN(C(=O)CCC(=O)NC3CCC(Cc4cccc(C)c4)(N(C)C)CC3)CC2)cc1 (centres unmarked) [Example 89, 4-[4-(4-allyloxy-benzyl)-piperazin-1-yl]-N-[4-dimethylamino-4-(3-methyl-benzyl)-cyclohexyl]-4-oxo-butyramide]	98	94		
COc1cccc(N2CCN(C(=O)CCCC(=O)NC3CCC(Cc4ccccc4)(N(C)C)CC3)CC2)c1 (centres unmarked) [Example 91, 5-[4-(3-methoxy-phenyl)-piperazin-1-yl]-5-oxo-valeric acid (4-benzyl-4-dimethylamino-cyclohexyl)-amide]	101	92		
CC1CCN(C(=O)CCC(=O)NC2CCC(Cc3cccc(Cl)c3)(N(C)C)CC2)CC1 (centres unmarked) [Example 92, N-[4-(3-chloro-benzyl)-4-dimethylamino-cyclohexyl]-4-(4-methyl-piperidin-1-yl)-4-oxo-butyramide]	89	92		
CCOP(=O)(Cc1ccc(NC(=O)CCC(=O)NC2CCC(Cc3ccc(Cl)cc3)(N(C)C)CC2)cc1)OCC (centres unmarked) [Example 93, (4-{3-[4-(4-chloro-benzyl)-4-dimethylamino-cyclohexylcarbamoyl]-propionylamino}-benzyl)-phosphonic acid diethylester]	75	92		
Cc1ccc(CC2(N(C)C)CCC(NC(=O)CCC(=O)N3CCN(c4ccccc4C)CC3)CC2)cc1 (centres unmarked) [Example 94, N-[4-dimethylamino-4-(4-methyl-benzyl)-cyclohexyl]-4-oxo-4-(4-o-tolyl-piperazin-1-yl)-butyramide]	86	92		
Cc1ccc(CC2(N(C)C)CCC(NC(=O)CCC(=O)N3CCN(c4ccc(Cl)cc4)CC3)CC2)cc1 (centres unmarked) [Example 96, 4-[4-(4-chloro-phenyl)-piperazin-1-yl]-N-[4-dimethylamino-4-(4-methyl-benzyl)-cyclohexyl]-4-oxo-butyramide]	87	94		
CN(C)C1(Cc2ccc(Cl)cc2)CCC(NC(=O)CCC(=O)NC2CCN(Cc3ccc(C(F)(F)F)cc3)C2)CC1 (centres unmarked) [Example 98, N-[4-(4-chloro-benzyl)-4-dimethylamino-cyclohexyl]-N′-[1-(4-trifluoromethyl-benzyl)-pyrrolidin-3-yl]-succinamide]	74	92		
CN(C)C1(Cc2cccc(Cl)c2)CCC(NC(=O)CCC(=O)NCCc2c[nH]c3ccccc23)CC1 (centres unmarked) [Example 99, N-[4-(3-chloro-benzyl)-4-dimethylamino-cyclohexyl]-N′-[2-(1H-indol-3-yl)-ethyl]-succinamicle]			99	94
CN(C)C1(Cc2ccc(Cl)cc2)CCC(NC(=O)CCC(=O)Nc2ccc3c(c2)CCC3)CC1 (centres unmarked) [Example 100, N-[4-(4-chloro-benzyl)-4-dimethylamino-cyclohexyl]-N′-indan-5-yl-succinamide]	77	92		
Cc1ccc(CC2(N(C)C)CCC(NC(=O)CCC(=O)Nc3ccc(OCc4ccccc4)cc3)CC2)cc1 (centres unmarked) [Example 101, N-(4-benzyloxy-phenyl)-N′-[4-dimethylamino-4-(4-methyl-benzyl)-cyclohexyl]-succinamide]	77	94		
CCC(C)C(NC(=O)CCC(=O)NC1CCC(Cc2cccc(C)c2)(N(C)C)CC1)C(=O)OC(C)(C)C (centres unmarked) [Example 102, 2-{3-[4-dimethylamino-4-(3-methyl-benzyl)-cyclohexylcarbamoyl]-propionylamino}-3-methyl-valeric acid tert-butyl ester]	105	94		
Cc1cccc(CC2(N(C)C)CCC(NC(=O)CCC(=O)N3CCC(Cc4ccccc4)CC3)CC2)c1 (centres unmarked) [Example 103, 4-(4-benzyl-piperidin-1-yl)-N-[4-dimethylamino-4-(3-methyl-benzyl)-cyclohexyl]-4-oxo-butyramide]	108	94		
